Measurements reported in publication PMC2817709, “A Novel High-Affinity Sucrose Transporter Is Required for Virulence of the Plant Pathogen Ustilago maydis” (PLoS Biology, 2010).

Legend:
Srt1 = target: T1, Srt1 (Mycosarcoma maydis, UniProt A0A0D1E1N5); assay: competition with […]-sucrose uptake in srt1-expressing S. cerevisiae; type: cell-based; conditions: 10 mM competitor (100-fold excess) against 0.1 mM 14C-sucrose; pH 5.0, 29°C
T1 construct: gene UMAG_02374; full-length ORF, 546 residues, 12 predicted TMDs, untagged in vector NEV-E; expressed in invertase-deficient S. cerevisiae SEY2102
T1 sequence (A0A0D1E1N5 entry or part of it): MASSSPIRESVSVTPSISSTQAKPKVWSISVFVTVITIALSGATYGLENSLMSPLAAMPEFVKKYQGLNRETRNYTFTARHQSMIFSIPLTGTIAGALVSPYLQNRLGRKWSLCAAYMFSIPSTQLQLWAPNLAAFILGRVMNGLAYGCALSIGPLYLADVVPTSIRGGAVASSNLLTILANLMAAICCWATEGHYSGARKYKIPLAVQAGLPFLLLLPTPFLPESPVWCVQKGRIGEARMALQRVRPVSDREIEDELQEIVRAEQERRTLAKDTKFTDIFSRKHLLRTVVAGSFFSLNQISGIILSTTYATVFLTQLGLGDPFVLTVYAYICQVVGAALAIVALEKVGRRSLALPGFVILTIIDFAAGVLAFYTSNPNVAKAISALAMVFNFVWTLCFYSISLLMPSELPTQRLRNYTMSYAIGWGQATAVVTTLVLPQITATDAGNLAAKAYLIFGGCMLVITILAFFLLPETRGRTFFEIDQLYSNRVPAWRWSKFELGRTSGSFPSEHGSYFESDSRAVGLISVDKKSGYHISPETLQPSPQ

[1] = test system: OC[C@H]1O[C@@](CO)(O[C@H]2O[C@H](CO)[C@@H](O)[C@H](O)[C@H]2O)[C@@H](O)[C@@H]1O; assay: cells, lysate or membranes; conditions: pH 5.0, 50 mM Na-phosphate, 29°C, H+ symport, labelled compound

Compound | inhibition of sucrose uptake (Srt1) | Km [1]
OC[C@H]1O[C@H](OC[C@H]2O[C@H](O[C@]3(CO)O[C@H](CO)[C@@H](O)[C@@H]3O)[C@H](O)[C@@H](O)[C@@H]2O)[C@H](O)[C@@H](O)[C@H]1O [raffinose] | raffinose was the only alternative compound that caused a minor inhibition of sucrose uptake | 
Srt1 (Mycosarcoma maydis) |  | 26 ± 4.3 µM
